We go through 19 compounds from patent publication US20250114338A1, “TETRAHYDRO-PYRIDO[3,4-b]INDOLE ESTROGEN RECEPTOR MODULATORS AND USES THEREOF” (Genentech, Inc., priority 2014, published 2025).

This assay has as its system ER-alpha MCF7. Briefly: ER-alpha MCF7 HCS EC50; stated as measured by in vitro cell proliferation assays of Examples 902 and 903. Particulars: Homo sapiens, MCF7, MCF7 cells; Table 2. In kind it is cell-based. An excerpt:
The CellTiter-Glo® Luminescent Cell Viability Assay is a homogeneous method to determine the number of viable cells in culture based on quantitation of the ATP present, which signals the presence of metabolically active cells. The CellTiter-Glo® Assay is designed for use with multiwell plate formats, making it ideal for automated high-throughput screening (HTS), cell proliferation and cytotoxicity assays. The homogeneous assay procedure involves adding a single reagent (CellTiter-Glo® Reagent) directly to cells cultured in serum-supplemented medium. Cell washing, removal of medium or multiple pipetting steps are not required. The Cell Titer-Glo® Luminescent Cell Viability Assay, including reagents and protocol are commercially available (Promega Corp., Madison, WI, Technical Bulletin TB288).
The assay assesses the ability of compounds to enter cells and inhibit cell proliferation. The assay principle is based on the determination of the number of viable cells present by quantitating the ATP present in a homogenous assay where addition of the Cell Titer-Glo® reagent results in cell lysis and generation of a luminescent signal through the luciferase reaction. The luminescent signal is proportional to the amount of ATP present.
Cell Culture Medium: RPMI or DMEM high glucose, 10% Fetal Bovine Serum, 2 mM L-Glutamine, P/S. Incubate O/N (overnight) at 37° C., 5% CO2.
Day 2—Add Drug to Cells, Compound Dilution, DMSO Plates (serial 1:2 for 9 points). Add 20 μl of compound at 10 mM in the 2nd column of 96 well plate. […] Add 147 μl of Media into all wells. Transfer 3 μl of DMSO+ compound from each well in the DMSO Plate to each corresponding well on Media Plate using Rapidplate® (Caliper, a Perkin-Elmer Co.). For 2 drug combination studies, transfer one drug 1.5 μl of DMSO+ compound from each well in the DMSO Plate to each corresponding well on Media Plate using Rapidplate. Then, transfer another drug 1.5 μl to the medium plate.
Drug Addition to Cells, Cell Plate (1:10 dilution): Add 6 μl of media+ compound directly to cells (54 μl of media on the cells already). Incubate 3 days at 37° C., 5% CO2 in an incubator that will not be opened often.
Day 5—Develop Plates, Thaw Cell Titer Glo Buffer at room temperature: Remove Cell Plates from 37° C. and equilibrate to room temperature for about 30 minutes. Add Cell Titer-Glo® Buffer to Cell Titer-Glo® Substrate (bottle to bottle). Add 30 μl Cell Titer-Glo® Reagent (Promega cat. #G7572) to each well of cells. Place on plate shaker for about 30 minutes. Read luminescence on Analyst HT Plate Reader (half second per well).
Cell viability assays and combination assays: Cells were seeded at 1000-2000 cells/well in 384-well plates for 16 h. On day two, nine serial 1:2 compound dilutions were made in DMSO in a 96 well plate. The compounds were further diluted into growth media using a Rapidplate® robot (Zymark Corp., Hopkinton, MA). The diluted compounds were then added to quadruplicate wells in 384-well cell plates and incubated at 37° C. and 5% CO2. After 4 days, relative numbers of viable cells were measured by luminescence using Cell Titer-Glo® (Promega) according to the manufacturer's instructions and read on a Wallac Multilabel Reader® (PerkinElmer, Foster City). EC50 values were calculated using Prism® 4.0 software (GraphPad, San Diego).
5 ul of each individual compound concentration and each control compound was transferred to the cell plate. Fulvestrant was added to control wells at a final concentration of 100 nM). DMSO was added to negative control wells (0.2% v/v).
Consider `C[C@@H]1Cc2c([nH]c3ccccc23)[C@@H](c2ccc(OC3CN(CCCF)C3)cc2Cl)N1CC(C)(C)F` [Example 211, (1R,3R)-1-[2-chloro-4-[1-(3-fluoropropyl)azetidin-3-yl]oxy-phenyl]-2-(2-fluoro-2-methyl-propyl)-3-methyl-1,3,4,9-tetrahydropyrido[3,4-b]indole], for which the EC50 is 0.2 nM. Under `C[C@@H]1Cc2c([nH]c3ccccc23)[C@@H](c2c(F)cc(OC3CN(CCC4COC4)C3)cc2F)N1CC(C)(C)F` [Example 208, (1R,3R)-1-[2,6-difluoro-4-[1-[2-(oxetan-3-yl)ethyl]azetidin-3-yl]oxy-phenyl]-2-(2-fluoro-2-methyl-propyl)-3-methyl-1,3,4,9-tetrahydropyrido[3,4-b]indole] stands 0.066 nM. As for `C[C@H]1Cc2c([nH]c3ccc(F)cc23)[C@H](c2c(F)cc(OC3CN(CCCF)C3)cc2F)N1C[C@](C)(F)CO` [Example 371, 3-((1S,3S)-1-(2,6-difluoro-4-((1-(3-fluoropropyl)azetidin-3-yl)oxy)phenyl)-6-fluoro-3-methyl-1,3,4,9-tetrahydro-2H-pyrido[3,4-b]indol-2-yl)-2-fluoro-2-methylpropan-1-ol], the EC50 amounted to 9 nM. The result for `C[C@@H]1Cc2c([nH]c3ccccc23)[C@@H](c2c(F)cc(N(C)C3CN(CCCF)C3)cc2F)N1CC(C)(C)F` [Example 404, N-(3,5-difluoro-4-((1R,3R)-2-(2-fluoro-2-methylpropyl)-3-methyl-2,3,4,9-tetrahydro-1H-pyrido[3,4-b]indol-1-yl)phenyl)-1-(3-fluoropropyl)-N-methylazetidin-3-amine] reads 0.745 nM. Under `CC(C)(F)CN1[C@H](CF)Cc2c([nH]c3ccccc23)[C@H]1c1c(F)cc(OCCN2CC(CF)C2)cc1F` [Example 135, (1R,3S)-1-[2,6-difluoro-4-[2-[3-(fluoromethyl)azetidin-1-yl]ethoxy]phenyl]-3-(fluoromethyl)-2-(2-fluoro-2-methyl-propyl)-1,3,4,9-tetrahydropyrido[3,4-b]indole] stands 0.0973 nM; under `C[C@@H]1Cc2c([nH]c3ccccc23)[C@H](c2ccc(NC3CN(CCCF)C3)cc2)N1S(C)(=O)=O` [Example 314, 1-(3-fluoropropyl)-N-[4-[(1S,3R)-3-methyl-2-methylsulfonyl-1,3,4,9-tetrahydropyrido[3,4-b]indol-1-yl]phenyl]azetidin-3-amine], 9 nM; under `C=CS(=O)(=O)N1[C@H](c2ccc(OCCN3CC(CF)C3)cc2)c2[nH]c3ccccc3c2C[C@H]1C` [Example 312, (1R,3R)-1-[4-[2-[3-(fluoromethyl)azetidin-1-yl]ethoxy]phenyl]-3-methyl-2-vinylsulfonyl-1,3,4,9-tetrahydropyrido[3,4-b]indole], 2 nM. Take `C[C@@H]1Cc2c([nH]c3ccccc23)[C@@H](c2c(F)cc(OC3CN(CCCCCF)C3)cc2F)N1CC(C)(C)F` [Example 335, (1R,3R)-1-[2,6-difluoro-4-[1-(5-fluoropentyl)azetidin-3-yl]oxy-phenyl]-2-(2-fluoro-2-methyl-propyl)-3-methyl-1,3,4,9-tetrahydropyrido[3,4-b]indole]: the EC50 was determined as 0.442 nM. The result for `C[C@@H]1Cc2c([nH]c3ccccc23)[C@@H](c2c(F)cc(OC3CN(CCCF)C3)cc2F)N1C[C@@H](C)O` [Example 264, (R)-1-((1R,3R)-1-(2,6-difluoro-4-((1-(3-fluoropropyl)azetidin-3-yl)oxy)phenyl)-3-methyl-1,3,4,9-tetrahydro-2H-pyrido[3,4-b]indol-2-yl)propan-2-ol] reads 0.969 nM; that for `C[C@@H]1Cc2c([nH]c3ccccc23)[C@@H](c2c(F)cc(OCCN3CC(CF)C3)cc2F)N1C[C@@H](CO)CF` [Example 403, (S)-3-((1R,3R)-1-(2,6-difluoro-4-(2-(3-(fluoromethyl)azetidin-1-yl)ethoxy)phenyl)-3-methyl-3,4-dihydro-1H-pyrido[3,4-b]indol-2(9H)-yl)-2-(fluoromethyl)propan-1-ol], 0.13 nM; that for `C[C@@H]1Cc2c([nH]c3ccccc23)[C@@H](c2ccc(OCCN3CC(CF)C3)cc2F)N1C[C@@](C)(F)CO` [Example 273, (R)-2-fluoro-3-((1R,3R)-1-(2-fluoro-4-(2-(3-(fluoromethyl)azetidin-1-yl)ethoxy)phenyl)-3-methyl-1,3,4,9-tetrahydro-2H-pyrido[3,4-b]indol-2-yl)-2-methylpropan-1-ol], 0.28 nM. The result for `CC1(C)Cc2c([nH]c3ccccc23)[C@@H](c2c(F)cc(NC3CN(CCCF)C3)cc2F)N1CC(F)(F)CO` [Example 420, (R)-3-(1-(2,6-difluoro-4-((1-(3-fluoropropyl)azetidin-3-yl)amino)phenyl)-3,3-dimethyl-3,4-dihydro-1H-pyrido[3,4-b]indol-2(9H)-yl)-2,2-difluoropropan-1-ol] reads 0.117 nM.

As to `CC(C)CN1CC(Oc2cc(F)c([C@@H]3c4[nH]c5ccccc5c4C[C@@H](C)N3CC(C)(C)F)c(F)c2)C1` [Example 169, (1R,3R)-1-[2,6-difluoro-4-(1-isobutylazetidin-3-yl)oxy-phenyl]-2-(2-fluoro-2-methyl-propyl)-3-methyl-1,3,4,9-tetrahydropyrido[3,4-b]indole], the EC50 is 0.409 nM.

As to `C[C@@H]1Cc2c([nH]c3ccc(Cl)cc23)[C@@H](c2c(F)cc(OC3CN(CCCF)C3)cc2F)N1CC(C)(C)F` [Example 239, (1R,3R)-6-chloro-1-(2,6-difluoro-4-((1-(3-fluoropropyl)azetidin-3-yl)oxy)phenyl)-2-(2-fluoro-2-methylpropyl)-3-methyl-2,3,4,9-tetrahydro-1H-pyrido[3,4-b]indole], the EC50 was 1.56 nM.

For the compound `C[C@H](CN1[C@H](c2c(F)cc(NC3CN(CCCF)C3)cc2F)c2[nH]c3ccccc3c2C[C@H]1C)C(=O)O` [Example 354, (2R)-3-[(1R,3R)-1-[2,6-difluoro-4-[[1-(3-fluoropropyl)azetidin-3-yl]amino]phenyl]-3-methyl-1,3,4,9-tetrahydropyrido[3,4-b]indol-2-yl]-2-methyl-propanoic acid], the EC50 was 1 nM. Regarding `C[C@@H]1Cc2c([nH]c3ccccc23)[C@@H](c2c(F)cc(OCCN3CC(F)(CF)C3)cc2F)N1CC(C)(C)F` [Example 205, (1R,3R)-1-[2,6-difluoro-4-[2-[3-fluoro-3-(fluoromethyl)azetidin-1-yl]ethoxy]phenyl]-2-(2-fluoro-2-methyl-propyl)-3-methyl-1,3,4,9-tetrahydropyrido[3,4-b]indole], the EC50 was found to be 0.375 nM. For `CC[C@@H]1Cc2c([nH]c3ccccc23)[C@@H](c2c(F)cc(OCCN3CC(CF)C3)cc2F)N1CC(C)(C)F` [Example 171, (1R,3R)-1-(2,6-difluoro-4-(2-(3-(fluoromethyl)azetidin-1-yl)ethoxy)phenyl)-3-ethyl-2-(2-fluoro-2-methylpropyl)-2,3,4,9-tetrahydro-1H-pyrido[3,4-b]indole], the EC50 was 0.471 nM.

Regarding `C[C@@H]1Cc2c([nH]c3ccccc23)[C@@H](c2c(F)cc(OCCN3CC(CF)C3)cc2F)N1C(=O)C1CC1` [Example 139, cyclopropyl((1R,3R)-1-(2,6-difluoro-4-(2-(3-(fluoromethyl)azetidin-1-yl)ethoxy)phenyl)-3-methyl-3,4-dihydro-1H-pyrido[3,4-b]indol-2(9H)-yl)methanone], the EC50 is 2.48 nM. Under `C[C@@H]1Cc2c([nH]c3ccccc23)[C@H](c2ccc(OCCN3CC(CF)C3)cc2F)N1C(=O)C(C)(C)F` [Example 229, 2-fluoro-1-[(1S,3R)-1-[2-fluoro-4-[2-[3-(fluoromethyl)azetidin-1-yl]ethoxy]phenyl]-3-methyl-1,3,4,9-tetrahydropyrido[3,4-b]indol-2-yl]-2-methyl-propan-1-one] stands 25 nM.

In general, EC50 refers to the concentration at which the effect is half-maximal.
